22 molecules from ChEMBL document CHEMBL1131987, “Structure-activity studies on a novel series of cholinergic channel activators based on a heteroaryl ether framework” (Bioorg Med Chem Lett, 1999) can be followed below.

Some results are limits rather than exact numbers.

Sequence of Neuronal acetylcholine receptor; alpha4/beta2 (P09483 whole entry): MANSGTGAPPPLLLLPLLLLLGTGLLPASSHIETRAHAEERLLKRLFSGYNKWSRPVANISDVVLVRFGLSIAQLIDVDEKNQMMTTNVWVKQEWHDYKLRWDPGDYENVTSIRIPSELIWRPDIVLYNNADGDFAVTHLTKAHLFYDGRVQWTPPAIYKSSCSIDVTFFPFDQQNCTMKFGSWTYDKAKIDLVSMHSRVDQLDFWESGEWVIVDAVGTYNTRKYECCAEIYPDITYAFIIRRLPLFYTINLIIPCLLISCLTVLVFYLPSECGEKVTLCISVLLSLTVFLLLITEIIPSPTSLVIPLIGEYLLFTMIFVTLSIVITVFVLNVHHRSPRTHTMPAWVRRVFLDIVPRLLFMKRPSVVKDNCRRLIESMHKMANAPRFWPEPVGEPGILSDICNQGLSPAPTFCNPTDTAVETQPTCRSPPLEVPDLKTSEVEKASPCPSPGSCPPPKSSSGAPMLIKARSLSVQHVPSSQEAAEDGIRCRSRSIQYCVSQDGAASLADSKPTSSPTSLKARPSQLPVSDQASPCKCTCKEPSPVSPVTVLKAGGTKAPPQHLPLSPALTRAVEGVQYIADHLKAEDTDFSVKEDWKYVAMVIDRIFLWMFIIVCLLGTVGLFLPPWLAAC
Sequence of Neuronal acetylcholine receptor; alpha4/beta2 (P12390 whole entry): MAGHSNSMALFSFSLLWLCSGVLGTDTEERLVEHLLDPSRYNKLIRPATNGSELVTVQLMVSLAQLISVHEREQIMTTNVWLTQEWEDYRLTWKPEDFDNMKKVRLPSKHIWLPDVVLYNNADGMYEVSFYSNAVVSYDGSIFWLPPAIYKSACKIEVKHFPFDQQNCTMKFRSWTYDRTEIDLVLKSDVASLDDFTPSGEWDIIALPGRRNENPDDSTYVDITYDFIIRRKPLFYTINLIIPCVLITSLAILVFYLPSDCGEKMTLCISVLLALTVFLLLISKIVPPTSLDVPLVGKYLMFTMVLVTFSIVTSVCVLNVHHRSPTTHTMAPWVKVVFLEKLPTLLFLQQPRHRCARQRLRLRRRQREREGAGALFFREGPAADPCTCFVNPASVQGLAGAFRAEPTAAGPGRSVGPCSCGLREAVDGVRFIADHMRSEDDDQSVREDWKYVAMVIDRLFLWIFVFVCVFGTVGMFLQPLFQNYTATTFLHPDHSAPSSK

This assay has as its target Neuronal acetylcholine receptor; alpha4/beta2 (Rattus norvegicus, UniProt P09483+P12390). As to the kind of experiment: Nicotinic acetylcholine receptor binding activity was determined by ability to displace [3H]- (-) cytisine binding from whole rat brain synaptic membranes.
By Ki is commonly meant a measure of affinity in units of concentration, obtained from inhibition or displacement. A lower Ki goes with a stronger hold on the target. As for `CN1CCC[C@H]1COc1ncccn1`, the Ki amounted to 1220 nM.
The result for `CN1CCC(OCc2cccnc2)C1` (configuration not stated) reads 11900 nM; that for `c1cncc(OCCN2CCCC2)c1`, 240 nM.
As for `CN1CCC[C@H]1COc1cnccn1`, the Ki was 16.3 nM.
In turn, `CN1CC[C@H](Oc2cccnc2)C1` returned a Ki of 2.67 nM.
The same measure for `CN1CC[C@H]1COc1ccc(Cl)nn1`: 63.8 nM; for `Clc1ccc(OCCN2CCCC2)nn1`: 1300 nM.
Molecule `CN1CCC[C@@H]1COc1cnccn1` showed an inhibition constant (Ki) of 406 nM.
As for `CN1CCC[C@H]1COc1ccccn1`, the Ki was found to be 495 nM.
The same measure for `CN1CC[C@@H](Oc2cccnc2)C1`: 4.44 nM; for `CN1CCC[C@H]1COc1cccnn1`: 42.1 nM; for `CN1CCC(Oc2ccc(Cl)nn2)C1` (configuration not stated): 46.4 nM.
Take `c1ccc(OCCN2CCCC2)nc1`: the affinity, expressed as Ki, was 160 nM.
Take `CN1CCC(Oc2ccccn2)C1` (configuration not stated): the Ki is > 10000 nM.
The result for `CN1CC[C@H]1COc1cncnc1` reads 6.54 nM.
The same measure for `CN1CC[C@H]1COc1cccnn1`: 28.2 nM.
The same measure for `c1cnc(OCCN2CCCC2)cn1`: 560 nM.
Turning to `CN1CCC[C@H]1COc1ccc(Cl)nn1`, the Ki was found to be 29 nM.
The result for `CN1CCC(Oc2cnccn2)C1` (configuration not stated) reads 359 nM; that for `c1ncc(OC[C@@H]2CCN2)cn1`, 0.13 nM.
Molecule `CN1CCC[C@@H]1COc1ccc(Cl)nn1` showed a Ki of 85.3 nM.
The same measure for `Clc1ccc(OC[C@@H]2CCN2)nn1`: 15.4 nM.
